Measured values taken from patent US7378437B2, “Drugs for diabetes” (NICOX S.A., priority 2000, dated 2008).

How the values were obtained:
[1] = tested on: aorta of insulin-resistant rats; test: Vasorelaxing effect in vitro on isolated aorta of insulin-resistant (fructose-rich diet) rats, precontracted with phenylephrine, with or without LNNA; type: cell-based, rat; conditions: for % Relaxation, Aorta with LNNA / % Relaxation, Aorta Without LNNA: phenylephrine 10 μM precontracted, percentage with respect to non insulin-resistant controls; for vasorelaxing effect in conditions of experimental diabetes (in words): aorta of insulin-resistant rats, in the presence and in absence of LNNA
Procedure: To evaluate the strengthening effect of the drugs of the invention on the antidiabetic activity of insulin, animals (rats) are treated with a fructose rich diet (Am. J. Physiol. 275, R788-R792, 1998). In this way an insulinic resistance is induced in the animals.
The pharmacological test is a test in vitro and consists in determining the vasorelaxing activity induced by the products of the invention, measured on an isolated vessel (aorta) taken from animals treated as above mentioned. The test in vitro is carried out both in the presence and in absence of LNNA (N-nitro-L-Arginine), which is an irreversible inhibitor of the nitric oxide synthethases, to verify if the vasorelaxing effect depends on the protective endogenous substances (nitric oxide).
The capability of the compounds of the invention to exert a vasorelaxing effect both in the presence and in absence of vasoprotective substances in such conditions of experimental diabetes, (animals with a fructose rich diet, and treated with or without LNNA), is an index which allows to evaluate the antidiabetic action of the tested compound.
In the pharmacological experiment isolated vessels are used, taken from rats which have developed, as said, an insulinic resistance condition induced by administering for 4 weeks a fructose rich diet.
Male Sprague Dawley rats having an average weight equal to 150-200 g were sacrificed and bled. The abdomi-nal aorta was removed and suitably prepared for determining the myorelaxing activity in vitro according to the method described by Vogel G. H. et al., Drug Discovery Evaluation-Pharmacological Assays page 32, 1996.
A part of the specimen is treated with LNNA.
The tissues are precontracted with phenylephrine (10 μM) and the relaxation was determined in the presence or in absence of the compounds of the invention or of the reference standards. […] The results are reported in Table 1 and are expressed as a percentage with respect to the vasorelaxing effect measured in the controls.

SMILES: CC(=O)Oc1ccccc1C(=O)OCc1cccc(CO[N+](=O)[O-])n1.Cl [Ex. 1, 2-acetoxybenzoic acid 6-(nitroxymethyl)-2-methylpyridinyl ester hydrochloride]
- % Relaxation, Aorta with LNNA ([1]; concentration 10^−5 M): 70%
- % Relaxation, Aorta Without LNNA ([1]; concentration 10^−5 M): 93%

SMILES: CC(=O)Oc1ccccc1C(=O)Oc1cccc(CO[N+](=O)[O-])c1 [Ex. 2, 3-nitrooxymethylphenyl ester of the 2-acetoxybenzoic acid]
- % Relaxation, Aorta with LNNA ([1]; concentration 10^−4 M): 70%
- % Relaxation, Aorta Without LNNA ([1]; concentration 10^−4 M): 70%

SMILES: COc1ccc2c(c1)c(CC(=O)Oc1cccc(CO[N+](=O)[O-])c1)c(C)n2C(=O)c1ccc(Cl)cc1 [Ex. 3 comp., 1-(4-chlorobenzoyl)-5-methoxy-2-methyl-3-indolacetic acid 3′-(nitroxymethyl)phenyl ester, reference compound]
- vasorelaxing effect in conditions of experimental diabetes (in words) [1]: did not result active
- % Relaxation, Aorta with LNNA ([1]; concentration 10^−6 M): 20%
- % Relaxation, Aorta Without LNNA ([1]; concentration 10^−6 M): 20%

SMILES: CC(=O)Oc1ccccc1C(=O)Oc1ccc(CO[N+](=O)[O-])cc1 [Ex. 6, 2-(acetyloxy)benzoic acid 4-(nitroxymethyl) phenyl ester]
- % Relaxation, Aorta with LNNA ([1]; concentration 10^−5 M): 65%
- % Relaxation, Aorta Without LNNA ([1]; concentration 10^−5 M): 90%
- melting point: 86 to 88 °C

SMILES: CN(C)C(=N)N=C(N)N [Metformin, reference compound]
- vasorelaxing effect in conditions of experimental diabetes (in words) [1]: active only in the absence of the inhibitor of the NO synthesis
- % Relaxation, Aorta with LNNA ([1]; concentration 10^−4 M): 30%
- % Relaxation, Aorta Without LNNA ([1]; concentration 10^−4 M): 90%
